How the values were obtained:
[1] = Halogen residuals (total and free) measured using DPD reagent after blending NaOCl with urea/NaOH; format: physicochemical
Method: We blended 5.0 mL NaOCl (3% as Cl2 in water) with 5.0 mL of an aqueous solution of urea and sodium hydroxide (0.5M urea in 5% NaOH). To achieve a 2:1 molar ratio of chlorine to urea we blended 5.0 mL NaOCl (3% as Cl2 in water) with 5.0 mL of an aqueous solution of urea and sodium hydroxide (0.25M urea in 5% NaOH). Halogen residuals were measured using DPD reagent, and were recorded 3 minutes after mixing with the reagent.
Because of the higher yield, less halogen is required to achieve the desired anti-microbial effect under these test conditions. […] The advantages of increased yield and improved anti-microbial activity are shown in Example 2.

[2] = system: Sphaerotilus natans (ATCC 1529); assay: Mean Biocidal Concentration for 100% kill of filamentous test isolate in buffered water (pH 7.2); format: cell-based
Method: Two biocide solutions were evaluated and included NaOCl and NaOCl mixed with urea at a 1:1 molar ratio. The unstabilized NaOCl solution was 3% as Cl2 in water. To prepare the stabilized chlorine solution we blended 5.0 mL NaOCl (3% as Cl2 in water) with 5.0 mL of an aqueous solution of urea and sodium hydroxide (0.5M urea in 5% NaOH). In the case of the stabilized chlorine the NaOCl and urea were mixed prior to introduction to buffered water (pH 7.2) inoculated with approximately 1×10^5 bacterial filaments/mL of the filamentous test isolate. The filamentous test isolate used in this evaluation was Sphaerotilus natans (ATCC 1529). The Mean Biocidal Concentration was identified as the test chlorine concentration in ppm of total chlorine (Cl2) required for 100% kill of the filamentous test isolate.

[3] = system: bacteria native to the process water sample; assay: Bacterial density in paper process water (coated groundwood mill, pH 7.9) dosed with halogen, with re-challenge; format: cell-based
Method: The unstabilized bleach solution was 3% as Cl2 in water. To prepare the stabilized chlorine solution we blended 5.0 mL NaOCl (3% as Cl2 in water) with 5.0 mL of an aqueous solution of urea and sodium hydroxide (0.5M urea in 5% NaOH). We then blended 5.0 mL NaOCl (3% as Cl2 in water) with 5.0 mL of an aqueous solution of urea and sodium hydroxide (0.25M urea in 5% NaOH). This yielded a 2:1 molar ratio of chlorine to urea.
Paper process water was collected from a mill in the Northeastern US producing coated groundwood printing and writing grades (pH 7.9). Samples were dosed with halogen and plated after one and four hours. Following the four-hour sampling, process water was challenged with 1% (volume/volume) of untreated process water and samples were plated again after 24 hours.

[4] = pH after mixing 9.8, recorded 3 minutes after mixing with DPD reagent

SMILES: [Na+].[O-]Cl [NaOC1, sodium hypochlorite]
- Free Halogen (% Yield) [1, 4]: 100 % Yield
- Total Halogen (% Yield) [1, 4]: 100 % Yield
- Free Halogen (% Yield) ([1]; pH after mixing 13.0): 100 % Yield
- Total Halogen (% Yield) ([1]; pH after mixing 13.0): 100 % Yield
- Free Halogen (% Yield) ([1]; pH after mixing 13.5): 100 % Yield
- Total Halogen (% Yield) ([1]; pH after mixing 13.5): 100 % Yield
- Mean Biocidal Concentration S. natans ([2]; contact time 0.5 hours): 5 ppm Total C12
- Mean Biocidal Concentration S. natans ([2]; contact time 1 hour): 5 ppm Total C12
- Mean Biocidal Concentration S. natans ([2]; contact time 3.5 hours): 5 ppm Total C12
- Mean Biocidal Concentration S. natans ([2]; contact time 9 hours): 5 ppm Total C12
- Bacterial Density ([3]; 2.5 ppm Total C12, contact time 1 hour): 2 log 10 CFU/mL
- Bacterial Density ([3]; 2.5 ppm Total C12, contact time 4 hours): 3.5 log 10 CFU/mL
- Bacterial Density ([3]; 2.5 ppm Total C12, contact time 24 hours, after challenge with 1% (v/v) untreated process water at 4 hours): 7.4 log 10 CFU/mL
- Bacterial Density ([3]; 10 ppm Total C12, contact time 1 hour): 2 log 10 CFU/mL
- Bacterial Density ([3]; 10 ppm Total C12, contact time 4 hours): 2 log 10 CFU/mL
- Bacterial Density ([3]; 10 ppm Total C12, contact time 24 hours, after challenge with 1% (v/v) untreated process water at 4 hours): 7.3 log 10 CFU/mL

Reference: patent US20100119620A1, “SUPPRESSING MICROBIAL GROWTH IN PULP AND PAPER” (priority 2006, published 2010)
